Here are results for four molecules from patent US10316100B2, “Treating basal-like genotype cancers” (The UAB Research Foundation, priority 2009, dated 2019).

For one data set, the system named is TRAIL-mediated apoptosis. To be noted: cited from earlier work.
A further data set has as its system IAP proteins. As to the kind of experiment: Western blot of IAP proteins in total cell lysates with 3H4 antibody, pancreatic cancer cells. To be noted: S2013 and S2VP10; 1000 ng/ml TRA-8, 10 uM AT-406, overnight. It counts as cell-based, human. (In general: In western blotting, separated proteins are transferred to a membrane and probed.)
Data set [1] concerns human pancreatic cancer cells, S013 and S2VP10. Put plainly: Effect of AT-406 on TRA-8-induced apoptosis of pancreatic cancer cells. It counts as cell-based. Particulars: 10 μM AT-406 alone. The source says: To determine whether AT-406 is able to overcome DR5-apoptosis resistance of pancreatic cancer cells, the effect of AT-406 on TRA-8-induced apoptosis was examined for two lines of human pancreatic cancer cells, S013 and S2VP10, both of which are highly resistant to TRA-8-mediated apoptosis. […] To determine the effect of AT-406 on the DR5/DDX3/cIAP1 protein complex, the amount of cIAP1 was examined by DR5-coIP. […] This was not due to the reduction of DR5-associated DDX3 as DDX3 was equally co-immunoprecipitated with DR5.

The next data set has as its target cIAP2 (Homo sapiens, UniProt Q13489). To be noted: cited from earlier work.
The test system of data set [2] is IAP proteins associated with DDX3. Put plainly: IAP proteins in the DDX3 complex, breast cancer cell lines (DDX3 immunoprecipitation, 3H4 blot). To be noted: panel of breast cancer cell lines; 1000 ng/ml TRA-8, 10 uM AT-406, overnight. The data set is classed as cell-based, human. The method, then: FIGS. 10A, 10B, and 10C show the in vitro effect of AT-406 on IAPs in breast cancer cell lines. Human breast cancer cell lines (MB436 and 2LMP (FIG. 10A), SUM159 and SUM149 (FIG. 10B), BT474 and MB468 (FIG. 10C) were treated with control medium (lane 1) or 1000 ng/ml TRA-8 (lane 2), or 10 uM AT-406 (lane 3) or both (lane 4) overnight. Cell lysates from treated cells were immunoprecipitated with an anti-DDX3 antibody (clone 3E4). The precipitated proteins were western blotted and the IAP proteins were detected by 3H4 antibody.
Effect of AT-406 on expression of IAP proteins in the DDX3 complex was analyzed in a panel of breast cancer cell lines including triple negative and non-triple negative lines. As previously shown, four triple negative breast cancer lines, […], 2LMP (FIG. 10A), SUM 159, and SUM 149 (FIG. 10B) expressed lower levels of cIAP1 or cIAP2 protein when co-immunoprecipitated with DDX3, compared to two non-triple negative lines, BT474 and MB468 (FIG. 10C), which were resistant to TRA-8-mediated apoptosis.

In another data set the target is cIAP1 (Homo sapiens, UniProt Q13490). To be noted: cited from earlier work.
Another data set addresses XIAP (Homo sapiens, UniProt P98170). To be noted: cited from earlier work.
Data set [3] addresses T1, DR5/DDX3/cIAP1 protein complex (Homo sapiens, UniProt Q13490).
T1 construct: endogenous in cells; host or cells: S2013 (printed S013) and S2VP10 human pancreatic cancer cells
As to the kind of experiment: cIAP1 in the DR5 complex by DR5-coIP, pancreatic cancer cells. It counts as cell-based. Particulars: 10 uM AT-406, 1000 ng/ml TRA-8, overnight.

Data set [4] relates to 2LMP orthotopic basal B xenografts. Put plainly: In vivo efficacy against 2LMP orthotopic xenografts. On the set-up: species or system athymic nude mice. Particulars: 2LMP xenografts; untreated 8.6 days. The method, then: (§1) The arrows indicate the interval during which antibody was administered (n=9-10 mice/group).
(§2) Treatments were initiated once tumors were well-established, with tumor diameters of about 6 mm, and tumor size was monitored over time.

The subject of data set [5] is SUM159 orthotopic basal B xenografts. As to the kind of experiment: In vivo efficacy against SUM159 orthotopic xenografts. On the set-up: species or system athymic nude mice. Particulars: untreated 17.9 days. The method, then: as §1, §2
The subject of data set [6] is triple negative breast cell (TNBC) cell lines (basal). Put plainly: TRA-8 cytotoxicity against the panel of TNBC cell lines. It counts as cell-based, human. Particulars: cell lines of basal B subtype (FIG. 1).
Another data set relates to DDX3. As to the kind of experiment: siRNA mediated knockdown of DDX3, Western blot in TRA-8-resistant MDA231 cells. The data set is classed as cell-based, human. To be noted: among five RNAi constructs. The source says: Design RNAi: an online design tool, BLOCK-iT RNAi Designer (Invitrogen; Carlsbad, Calif.), was used to identify RNAi targets for DDX3. Five targeted siRNA sequences were selected from the top 10 highest scoring RNAi targets (see Table 1).
They were then cloned into the BLOCK-iT U6 entry vector. The siRNA is driven by the U6 promoter and can be transiently expressed in most dividing or nondividing mammalian cell types. Resistant cells were transfected with RNAi used LIPOFECTAMINE 2000 (Invitrogen; Carlsbad, Calif.) for the RNAi response. The decreased DDX3 expression was determined by Western blot analysis using anti-DDX3 antibody 36 hours after transfection. […]
To study the role of DDX3 in DR5 signaling, the importance of endogenous DDX3 in TRA-8-induced apoptosis was examined. […] TRA-8-resistant MDA231 cells were transfected with five RNAi constructs, and protein expression levels of DDX3 were determined by Western blot analysis using monoclonal anti-DDX3 antibody 48 hours post-transfection. […] To further determine the causal role of DDX3 in DR5-mediated apoptosis, DDX3 expression was reduced in a panel of tumor cells and their susceptibility to TRA-8-induced apoptosis analyzed. […]

T1 sequence (Q13490 whole entry, one chain of several): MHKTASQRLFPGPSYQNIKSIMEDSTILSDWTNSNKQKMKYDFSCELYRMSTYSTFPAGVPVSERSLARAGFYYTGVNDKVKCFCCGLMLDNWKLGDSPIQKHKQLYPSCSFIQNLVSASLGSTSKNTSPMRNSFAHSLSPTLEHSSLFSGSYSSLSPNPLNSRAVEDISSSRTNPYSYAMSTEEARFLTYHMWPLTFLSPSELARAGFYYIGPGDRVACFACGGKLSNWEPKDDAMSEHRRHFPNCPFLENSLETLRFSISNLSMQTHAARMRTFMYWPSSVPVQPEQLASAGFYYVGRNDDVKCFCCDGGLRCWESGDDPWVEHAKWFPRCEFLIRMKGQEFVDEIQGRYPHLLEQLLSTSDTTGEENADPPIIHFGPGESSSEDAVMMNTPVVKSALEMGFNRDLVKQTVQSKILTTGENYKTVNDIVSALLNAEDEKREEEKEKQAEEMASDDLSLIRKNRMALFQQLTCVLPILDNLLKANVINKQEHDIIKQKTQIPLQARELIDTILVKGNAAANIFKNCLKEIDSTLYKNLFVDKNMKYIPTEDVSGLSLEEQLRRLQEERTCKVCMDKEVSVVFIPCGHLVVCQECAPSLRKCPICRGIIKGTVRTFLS
Sequence of cIAP1 (Q13490 whole entry): as the sequence (Q13490 whole entry, one chain of several) above
Sequence of cIAP2 (Q13489 whole entry): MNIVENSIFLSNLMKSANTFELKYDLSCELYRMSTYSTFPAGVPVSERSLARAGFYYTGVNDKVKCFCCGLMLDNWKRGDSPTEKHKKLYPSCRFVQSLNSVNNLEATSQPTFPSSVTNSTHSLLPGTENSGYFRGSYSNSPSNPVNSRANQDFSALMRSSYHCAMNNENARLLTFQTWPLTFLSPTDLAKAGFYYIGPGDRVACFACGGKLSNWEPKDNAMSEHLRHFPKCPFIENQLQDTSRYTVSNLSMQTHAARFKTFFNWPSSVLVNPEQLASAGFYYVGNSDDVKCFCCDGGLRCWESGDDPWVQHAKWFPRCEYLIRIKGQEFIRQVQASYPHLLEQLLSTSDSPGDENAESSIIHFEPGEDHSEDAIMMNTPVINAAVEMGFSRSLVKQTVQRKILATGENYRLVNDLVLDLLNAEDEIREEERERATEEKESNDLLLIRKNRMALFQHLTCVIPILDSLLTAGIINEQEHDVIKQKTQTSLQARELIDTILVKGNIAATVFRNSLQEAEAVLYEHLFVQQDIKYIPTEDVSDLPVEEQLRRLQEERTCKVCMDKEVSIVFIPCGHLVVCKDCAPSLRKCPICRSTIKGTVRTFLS
Sequence of XIAP (P98170 whole entry): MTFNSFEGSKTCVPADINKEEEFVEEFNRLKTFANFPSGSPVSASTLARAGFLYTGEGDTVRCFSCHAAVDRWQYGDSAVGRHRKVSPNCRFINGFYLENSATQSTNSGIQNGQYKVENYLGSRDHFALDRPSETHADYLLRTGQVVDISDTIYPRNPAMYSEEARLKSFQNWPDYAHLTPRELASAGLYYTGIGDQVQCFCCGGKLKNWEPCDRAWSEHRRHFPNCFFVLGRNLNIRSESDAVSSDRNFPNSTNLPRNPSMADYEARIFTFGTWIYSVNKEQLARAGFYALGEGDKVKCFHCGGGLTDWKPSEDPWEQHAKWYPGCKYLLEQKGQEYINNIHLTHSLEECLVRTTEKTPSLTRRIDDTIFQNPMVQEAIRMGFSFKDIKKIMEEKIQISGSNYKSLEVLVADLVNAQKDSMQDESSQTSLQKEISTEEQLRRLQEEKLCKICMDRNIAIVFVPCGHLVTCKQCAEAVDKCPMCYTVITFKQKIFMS

In the case of `CN[C@@H](C)C(=O)N[C@H]1CN(C(=O)CC(C)C)CC[C@H]2CC[C@@H](C(=O)NC(c3ccccc3)c3ccccc3)N2C1=O` [AT-406], in the data set with TRAIL-mediated apoptosis, the “effect on TRAIL-mediated apoptosis” value is listed as “synergistically enhances”. In addition, the “total IAP protein expression” value in the data set with IAP proteins is given as “did not alter”. Moreover, in data set [1], the cell death result is listed as “did not induce significant cell death”. The affinity entry at cIAP2, at cIAP1 and on XIAP was “low nanomolar affinity” each time. In addition, the “levels of the IAP proteins associated with DDX3” value in [2] is reported as “significantly reduced”. For the same molecule, in [3], the “amount of cIAP1 in the DR5 complex” value was “dramatic reduction”.

The molecule `COc1cccc2c1C(=O)c1c(O)c3c(c(O)c1C2=O)C[C@@](O)(C(=O)CO)C[C@@H]3O[C@H]1C[C@H](N)[C@H](O)[C@H](C)O1` [Adriamycin] gave a tumor doubling time in [4] of 51.1 days. Also, in data set [5], the “mean tumor doubling time” value amounted to 41.9 days.

“TRAIL: Recombinant soluble TRAIL purchased from Alexis Biochemicals”: in data set [6], the “cytotoxicity compared with TRA-8” value is recorded as “Equivalent cytotoxicity”.

B1: construct #2: DDX3 RNAi construct 562-582, SEQ ID NO: 6 and 7 (nucleic acid)
chain 1: CACCGGAGAAATTATCATGGGAAACCGAAGTTTCCCATGATAATTTCTCC
chain 2: AAAAGGAGAAATTATCATGGGAAACTTCGGTTTCCCATGATAATTTCTCC
modifications: expressed or natural sequence
As to B1, in the data set with DDX3, the “rank as inhibitor of DDX3 expression” value was “most effective”.
